In patent publication US20240368221A1, “IMPATIENS BALSAMINA-DERIVED ANTI-BACTERIAL PEPTIDE AND ANTI-BACTERIAL COMPOSITION CONTAINING SAME” (V&CO CO., LTD., priority 2021, published 2024):
≈ marks a conversion by molar mass, not a printed value. Read-outs that look alike come from different tables or passages of the source. Where a SMILES comes first, the peptide text is derived from it.

What was measured:
Format in all cases: cell-based
[1] = tested on: Aspergillus niger KCTC 6317
Description: (§1) To examine the antimicrobial and antifungal activity of the six types of peptide derivatives prepared in Example 1, antimicrobial and antifungal activity was analyzed using three types of bacterial strains and two types of fungal strains.
(§2) Specifically, to analyze antimicrobial and antifungal activity, a minimal inhibitory concentration (MIC) was measured. The three types of bacterial strains included Escherichia coli KCCM 41290, Staphylococcus aureus KCTC 1621, and Cutibacterium acnes KCTC 3314, and the two types of fungal strains included Candida albicans KCTC 17712, and Aspergillus niger KCTC 6317. The culture of Escherichia coli and Staphylococcus aureus was performed in Luria-Bertani (LB) medium (BD Difco), and the culture of Cutibacterium acnes was performed in reinforced clostridial medium (RCM, BD Difco). The culture of Candida albicans and Aspergillus niger was performed in potato dextrose (PD) medium (BD Difco). The pre-cultured microorganisms or spores were diluted in a medium to 5×10^3 CFU/mL, and each of the six types of peptide derivatives prepared in Example 1 was added at a predetermined concentration. Afterward, a bacterial strain was cultured at 37° C., a fungal strain was cultured at 25° C. for 18 to 24 hours, and optical densities (OD600) were measured using a microplate reader. Fluorescence values (Ex560 and Em600), instead of optical densities, were measured after adding a resazurin reagent to the Aspergillus niger medium to have a concentration of 100 μM. As a control, Ib-AMP4 was used, and the analysis results were expressed as the average of three repeated experiments.

[2] = tested on: Candida albicans KCTC 17712
Description: as §1, §2

[3] = tested on: Cutibacterium acnes KCTC 3314
Description: as §1, §2

[4] = tested on: Escherichia coli KCCM 41290
Description: as §1, §2

[5] = tested on: Staphylococcus aureus KCTC 1621
Description: as §1, §2

[6] = Aspergillus niger, PD medium, 25° C., 18 to 24 hours, resazurin fluorescence
[7] = Candida albicans, PD medium, 25° C., 18 to 24 hours, OD600
[8] = Cutibacterium acnes, RCM, 37° C., 18 to 24 hours, OD600
[9] = Escherichia coli, LB medium, 37° C., 18 to 24 hours, OD600
[10] = Staphylococcus aureus, LB medium, 37° C., 18 to 24 hours, OD600

N=C(N)NCCC[C@H](NC(=O)[C@H](CCCNC(=N)N)NC(=O)[C@H](CS)NC(=O)[C@H](Cc1ccc(O)cc1)NC(=O)[C@H](CCCNC(=N)N)NC(=O)[C@H](CCCNC(=N)N)NC(=O)CNC(=O)[C@@H]1CCCN1C(=O)CN)C(N)=O [VESCA1] (H-GPGRRYCRR-NH2; N-terminus assumed)
MIC [1, 6]: 60 µg/mL (≈ 53.6 µM)
MIC [2, 7]: 40 µg/mL (≈ 35.7 µM)
MIC [3, 8]: >100 µg/mL
MIC [4, 9]: >100 µg/mL
MIC [5, 10]: >100 µg/mL

C[C@H](NC(=O)[C@H](Cc1ccc(O)cc1)NC(=O)[C@H](CCCNC(=N)N)NC(=O)[C@H](CCCNC(=N)N)NC(=O)CNC(=O)[C@@H]1CCCN1C(=O)CN)C(=O)N[C@@H](CCCNC(=N)N)C(=O)N[C@@H](CCCNC(=N)N)C(N)=O [VESCA2] (H-GPGRRYARR-NH2; N-terminus assumed)
MIC [1, 6]: 80 µg/mL (≈ 73.6 µM)
MIC [2, 7]: 60 µg/mL (≈ 55.2 µM)
MIC [3, 8]: >100 µg/mL
MIC [4, 9]: >100 µg/mL
MIC [5, 10]: >100 µg/mL

N=C(N)NCCC[C@H](NC(=O)CNC(=O)[C@H](Cc1c[nH]c2ccccc12)NC(=O)[C@H](CCC(=O)O)NC(=O)[C@@H](N)CC(=O)O)C(=O)N[C@@H](CCCNC(=N)N)C(=O)N[C@@H](CS)C(=O)N[C@@H](CS)C(=O)NCC(N)=O [VESCA-NH2] (H-DEWGRRCCG-NH2; N-terminus assumed)
MIC ([1]; KCTC 6317): >100 µg/mL
MIC ([2]; KCTC 17712): >100 µg/mL
MIC ([3]; KCTC 3314): >100 µg/mL
MIC ([4]; KCCM 41290): >100 µg/mL
MIC ([5]; KCTC 1621): >100 µg/mL

N=C(N)NCCC[C@H](NC(=O)[C@H](CCCNC(=N)N)NC(=O)[C@H](CCCCN)NC(=O)[C@H](Cc1c[nH]c2ccccc12)NC(=O)[C@H](CCC(=O)O)NC(=O)[C@@H](N)Cc1ccc(O)cc1)C(=O)N[C@@H](CS)C(=O)N[C@@H](CS)C(=O)N[C@@H](CCCCN)C(N)=O [VESCA-NH4] (H-YEWKRRCCK-NH2; N-terminus assumed)
MIC ([1]; KCTC 6317): >100 µg/mL
MIC ([2]; KCTC 17712): 100 µg/mL (≈ 78.7 µM)
MIC ([3]; KCTC 3314): >100 µg/mL
MIC ([4]; KCCM 41290): >100 µg/mL
MIC ([5]; KCTC 1621): >100 µg/mL

CC[C@H](C)[C@H](NC(=O)[C@H](Cc1ccccc1)NC(=O)[C@H](CCCCN)NC(=O)[C@H](CCSC)NC(=O)[C@H](CCCCN)NC(=O)[C@H](CCCNC(=N)N)NC(=O)[C@H](CCCNC(=N)N)NC(=O)[C@@H](NC(=O)[C@H](Cc1c[nH]c2ccccc12)NC(=O)[C@@H](N)CCC(=O)O)C(C)C)C(=O)N[C@@H](CC(N)=O)C(=O)N[C@@H](CO)C(=O)N[C@@H](CC(C)C)C(=O)N[C@@H](Cc1ccc(O)cc1)C(=O)N[C@@H](CO)C(=O)N[C@@H](Cc1c[nH]c2ccccc12)C(N)=O [VESCA-OH3] (H-EWVRRKMKFINSLYSW-NH2; N-terminus assumed)
MIC ([1]; KCTC 6317): 80 µg/mL (≈ 37.3 µM)
MIC ([2]; KCTC 17712): 100 µg/mL (≈ 46.7 µM)
MIC ([3]; KCTC 3314): >100 µg/mL
MIC [4, 9]: 40 µg/mL (≈ 18.7 µM)
MIC ([5]; KCTC 1621): 5 µg/mL (≈ 2.33 µM)
antimicrobial activity (MIC) ([5]; Staphylococcus aureus, text of b72): 5 µg/mL
